Earlier results, collected in publication PMC3266668 (Frontiers in Pharmacology, 2012).

Assays:
[1] = test system: patients after myocardial infarction; conditions: ref Echt et al., [1991]
[2] = test system: isolated left ventricular wedge preparations; conditions: ref Lu et al., [2010]
[3] = test system: isolated rabbit hearts; conditions: ref Lu et al., [2010]

Row | QRS interval effect [2] | ventricular tachycardia [2] | QRS interval effect [3] | ventricular tachycardia [3] | Compound | mortality in CAST treatment arms [1]
1 |  |  |  |  | COc1ccc(C(=O)Nc2ccccc2CCC2CCCCN2C)cc1 (stereo not drawn) [encainide] | increased mortality due to arrhythmias
2 |  |  |  |  | O=C(NCC1CCCCN1)c1cc(OCC(F)(F)F)ccc1OCC(F)(F)F (stereo not drawn) [flecainide] | increased mortality due to arrhythmias
3 | only slightly increased QRS duration | without inducing ventricular tachycardia | small increase in QRS duration | did not induce ventricular tachycardia | CCN(CC)CC(=O)Nc1c(C)cccc1C [lidocaine] | 
